From PubChem BioAssay (NCI)
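Each compound was tested at five concentrations against cells in 96-well plates for 48 hours. Abbreviation: GI50, concentration required for 50% inhibition of growth. TGI marks complete inhibition of growth.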

Assays:
Assay in all cases: inhibition of tumour cell growth, NCI panel, 48 h
[1] = system: HS 578T breast
[2] = system: PC-3 prostate
[3] = system: HCC-2998 colon
[4] = system: 786-0 renal
[5] = system: NCI/ADR-RES ovarian
[6] = system: MDA-MB-231 breast
[7] = system: BT-549 breast
[8] = system: MDA-N
[9] = system: SR leukemia
[10] = system: SNB-78 CNS
[11] = system: DLD-1 colon
[12] = system: M19-MEL melanoma
[13] = system: DMS 273 small cell lung
[14] = system: KM20L2 colon

`CC(C)C(C(=O)O)N1C(=O)c2ccccc2C1=O` (configuration not stated) gave a TGI [1] of over 100 µM, a TGI [2] of over 100 µM and a TGI [3] of over 100 µM. The TGI [4] was over 100 µM, the TGI [5] was over 100 µM and the TGI [6] was over 100 µM. It also gave a TGI [7] of over 100 µM and a TGI [8] of over 100 µM.

`COC(=O)c1ccc2c(c1)S/C(=C/c1ccc3ccc4cccc5ccc1c3c45)S2` gave a TGI [1] of over 100 µM, a TGI [2] of over 100 µM and a TGI [3] of over 100 µM. The TGI [4] was over 100 µM, the TGI [5] was 76.2 µM and the TGI [6] was over 100 µM. It also gave a TGI [7] of over 100 µM and a TGI [8] of over 100 µM.

`O[C@@]12Cc3c([nH]c4ccccc34)[C@@H]3Oc4cccc5c4[C@@]31CCN(CC1CC1)[C@@H]2C5` showed a TGI [2] of 30.7 µM, a TGI [3] of 31.9 µM and a TGI [5] of 51.2 µM. It also gave a TGI [6] of 40.4 µM, a TGI [7] of 35.3 µM and a TGI [9] of over 100 µM. It also gave a TGI [8] of 33.9 µM.

`COC(=O)C1=C(OC(=O)/C(=C/c2ccc(Cl)cc2)c2ccc(Cl)cc2)C(C(=O)OC)[C@]2(O)[C@@H](C(=O)OC)[C@H]1C[C@@H](c1ccccc1)[C@@H]2C(=O)OC` (some centres not stated) was tested, and the TGI [2] was over 100 µM, the TGI [5] was over 100 µM and the TGI [6] was over 100 µM. For the same compound, the TGI [7] was over 100 µM and the TGI [8] was over 100 µM.

`CCCC1CCC(=C2C(=O)CCC2=O)O1` (configuration not stated) was tested, and the TGI [1] was over 100 µM, the TGI [2] was over 100 µM and the TGI [3] was over 100 µM. For the same compound, the TGI [4] was over 100 µM, the TGI [5] was over 100 µM and the TGI [6] was over 100 µM. It also gave a TGI [7] of over 100 µM, a TGI [9] of over 100 µM and a TGI [8] of over 100 µM.

Work on `Cn1c(-c2ccccc2)cc(-c2cccs2)c1-c1cccs1` yielded a TGI [10] of over 100 µM, a TGI [11] of over 100 µM and a TGI [12] of over 100 µM. It also gave a TGI [13] of over 100 µM, a TGI [3] of over 100 µM and a TGI [5] of over 100 µM. It also gave a TGI [14] of over 100 µM.

`Nc1nc(Nc2ccccc2)c2[nH]cnc2n1` showed a TGI [2] of over 100 µM, a TGI [3] of over 100 µM and a TGI [4] of over 100 µM. It also gave a TGI [5] of over 100 µM, a TGI [6] of over 100 µM and a TGI [8] of over 100 µM.

`OCCN(CCO)c1ncnc2nc[nH]c12` gave a TGI [1] of over 100 µM, a TGI [2] of over 100 µM and a TGI [3] of over 100 µM. The TGI [4] was over 100 µM, the TGI [5] was over 100 µM and the TGI [6] was over 100 µM. The TGI [7] was over 100 µM and the TGI [8] was over 100 µM.

Work on `CC1=NN(c2nc(N)nc(/C(C#N)=C\c3csc([N+](=O)[O-])c3)n2)C(C)(C)C1` yielded a TGI [1] of 54.9 µM, a TGI [2] of 41.5 µM and a TGI [3] of over 100 µM. It also gave a TGI [4] of 32.2 µM, a TGI [5] of 70.3 µM and a TGI [6] of 64 µM. It also gave a TGI [9] of over 100 µM and a TGI [8] of 98.9 µM.

Work on `O=c1c2cc(S(=O)(=O)O)ccc2nc(COc2ccc(Oc3ccc(Cl)cc3Cl)cc2)n1-c1ccc(Oc2ccc(Cl)cc2)cc1Cl` yielded a TGI [1] of 42.3 µM, a TGI [2] of over 100 µM and a TGI [4] of 40.7 µM. For the same compound, the TGI [5] was 39.5 µM, the TGI [7] was 34.3 µM and the TGI [9] was 46.5 µM. For the same compound, the TGI [8] was 59.2 µM.

Compound `CC1=C(O)C2=C(C(=O)C1=O)[C@@H](C)CC[C@@H]2[C@@H](C)C/C=C/C(C)(C)O` has a TGI [1] of over 100 µM, a TGI [2] of over 100 µM and a TGI [4] of over 100 µM. It also gave a TGI [5] of over 100 µM, a TGI [6] of over 100 µM and a TGI [9] of 80.4 µM. For the same compound, the TGI [8] was over 100 µM.

With `CC12C=CC(=O)C=C1CCC1C3CCC(O)(C(=O)CO)C3(C)CC(O)C12F` (configuration not stated) the TGI [10] was over 100 µM, the TGI [1] was over 100 µM and the TGI [11] was over 100 µM. It also gave a TGI [12] of over 100 µM, a TGI [13] of over 100 µM and a TGI [2] of over 100 µM. It also gave a TGI [3] of over 100 µM, a TGI [4] of over 100 µM and a TGI [5] of over 100 µM. The TGI [14] was over 100 µM, the TGI [6] was over 100 µM and the TGI [7] was over 100 µM. The TGI [9] was over 100 µM and the TGI [8] was over 100 µM.

For `Nc1nc(O)c2ncn([C@H]3CC[C@@H](CO)O3)c2n1`, the TGI [1] was over 100 µM, the TGI [2] was over 100 µM and the TGI [5] was over 100 µM. The TGI [7] was over 100 µM, the TGI [9] was over 100 µM and the TGI [8] was over 100 µM.

Work on `COc1ccc(Oc2cccc(C3C4C(=O)N(c5ccc(C)c(Cl)c5)C(=O)C4ON3C(C(N)=O)c3ccccc3)c2)cc1` (configuration not stated) yielded a TGI [1] of over 50 µM, a TGI [2] of over 50 µM and a TGI [4] of over 50 µM. The TGI [6] was over 50 µM, the TGI [9] was 35.6 µM and the TGI [8] was 23.6 µM.

`C/C(=N/N=C(\[O-])c1ccncc1)C(F)(F)F.C/C(=N\N=C(/[O-])c1ccncc1)C(F)(F)F.[Ni+2]` gave a GI50 [3] of over 1 µM, a TGI [3] of over 1 µM and a GI50 [5] of over 1 µM. It also gave a TGI [5] of over 1 µM, a GI50 [7] of over 1 µM and a TGI [7] of over 1 µM.
